Source: patent EP1222180B1, “ENANTIOMERIC COMPOUNDS FOR TREATMENT OF CARDIAC ARRHYTHMIAS AND METHODS OF USE” (ARYx Therapeutics, priority 1999, dated 2001)

How the values were obtained:
[1] = system: anesthetized rats; assay: Anti-arrhythmic activity in anesthetized rats (benzene/adrenaline challenge, EKG recording); format: in vivo, Male Sprague-Dawley rats; details: for protection against tachyarrhythmia (heart rate increase after adrenaline): administered from time 0 to time 120 minutes, Figure 3; for inhibition of the formation of ventricular premature beats (VPB): period of drug administration (time 0 to 120 min); for Heart rate (beats/minute) / Inhibition of VPB / Inhibition of tachycardia / Number of VPB / PR interval / QRS interval / QT interval: isolated enantiomer compared to the racemate, 4 mg/kg i.v. then 12 mg/kg/h for 2 hours; for anti-VPB activity at the end of the washout period: time 180 min
Method: Male Sprague-Dawley rats with body weights of 410 ± 30 g (Harlan Sprague Dawley Inc., Indianapolis, IN), were anesthetized with sodium pentobarbital (50 mg/kg i.p. - Butler Co., Columbus, OH). The skin from the neck area was removed and the jugular veins on both sides were cleared of connective tissue. Both jugular veins and the left carotid artery were isolated, and the latter tied up cranially with a surgical silk (ETHICON 4-0, Ethicon Inc., Australia). A plastic catheter ([…] 19ga, Vecton Dickinson, Sandy, UT), filled with a solution containing 10% sodium heparin (Elkins-Sinn Inc., Cherry Hill, NJ) in normal saline (100 U/ml sodium heparin), was introduced into the artery and fixed with surgical silk.
The catheter was connected to a pressure transducer (OHMEDA P23-XL, Ohmeda Medical Devices Division Inc., Madison, WI), filled with the same heparinized 0.9% NaCl solution, to register beat-to-beat arterial pressure. Needle electrodes were inserted s.c., and together with the pressure transducer, were joined to a GOULD TA 2000 recorder. Leads II, aVF and intraarterial blood pressure were monitored simultaneously throughout the experiments and recorded at certain intervals at 50 and 200 mm/sec paper speed.
The surgery was completed with an incision on the trachea where a short plastic tubing was placed and the animal was connected to a rodent-model ventilator (HARVARD Model 683, Harvard Apparatus, Inc., Holliston, MA). The animals were ventilated in a controlled way, depending on their spontaneous breathing frequency (55-75/min).
Drug administrations were carried out through i.v. catheters (TERUMO 24 GA*3/4", Terumo Medical Corp., Elkton, MD) inserted into both jugular veins. The left side was used for drug infusions by means of a syringe pump (SAGE INSTRUMENTS, Model 341B, Orion Res. Inc., Boston, MA), and the right side was used for adrenaline injections. The experiments were started after at least 15 minutes of stabilization. Benzene/adrenaline challenges were performed as follows: the respirator inlet was connected to a 50-ml bubbler half-full with benzene (Fisher Scientific, Fair Lawn, NJ) so that the inspired air was saturated with benzene vapor. The animal was ventilated with benzene vapor for two minutes. The tidal volume was typically 1 ml/100g of animal. During the last 30 seconds of benzene ventilation, 10 µg/kg adrenaline solution (in 0.9% NaCl) was injected into the right jugular vein. […] These arrhythmias could be elicited repeatedly. After three control VTs (at -30, -20 and -10 minutes), the test compounds were injected slowly during 30 seconds at a dose of 4 mg/kg i.v., immediately followed by a slow infusion of 12 mg/kg/h for 2 hours. The flow rate during the infusion period was 1 ml/h.
There were 5 rats per test compound and each animal served as its own control. The ability of the different drugs to suppress arrhythmias was tested against repeated benzene/adrenaline challenges at 5, 15, 30, 45, 60, 90, 120 (end of drug infusion), 135, 150, 165 and 180 minutes after the i.v. bolus injection. The amplitudes of the systolic arterial pressure and diastolic arterial pressure […] with the help of a pressure-amplitude calibration curve. Heart rate, number of ventricular complexes during the occurrence of VTs and VPBs, and certain ECG parameters (PR, QRS, QT durations and RR cycle lengths in msec) were also recorded and measured manually. At each time-point, 3-5 cycles were measured and the average values were entered into EXCEL Windows 97. The average and standard deviation for the five experimental animals per compound were calculated.

[2] = format: in vitro ADME; details: human; for hydrolysis half-life: plasma
Method: Venous blood (60 ml) was collected in heparinized 15-ml Vacutainer® tubes from the forearm of five human volunteers. Each tube contained 1,000 units of heparin sodium salt. The blood was immediately centrifuged at 2,000 g for 10 minutes and the plasma was collected. Immediately after collection, the plasma was divided into 2-ml aliquots in borosilicate glass tubes (5-ml capacity) capped with a plastic stopper. The tubes were then equilibrated in a 37°C-water bath for at least 15 minutes before the test samples were added. Stock solutions were prepared by dissolving 25 µmoles (about 18 mg) of each of the test compounds in 10 ml of deionized water. To each of the glass tubes containing 2 ml of fresh plasma, equilibrated at 37°C, was added 40 µl of the stock solutions (one test compound per tube). The plasma/stock solutions were then mixed. Samples (250 µl) were collected at time 0 (immediately after mixing test compounds in plasma) and then at 30, 60, 90, 120, 180, 240, and 300 minutes. The test tubes were capped, to avoid concentration due to evaporation, and left in the 37°C bath during the entire experiment. […] The tubes were then capped and vortexed, then kept at -20°C until analysis. […] The supernatant was collected for injection in the HPLC system. […] The detection wavelength was set at 242 nm, and the injected volume was 100 µL. The HPLC peaks were recorded, and the integrated values were plotted against time using the SIGMAPLOT software version 4.0 for WINDOWS. The resulting curves were fitted to a first-order exponential decay equation from which hydrolysis half-lives were calculated.

[3] = benzene vapors and adrenaline challenge, Figure 2

Row | Structure (SMILES) | protection against tachyarrhythmia (heart rate increase after adrenaline) [1] | inhibition of the formation of ventricular premature beats (VPB) [1, 3] | time at which anti-VPB activity is lost [1, 3] | Heart rate (beats/minute) [1] | Inhibition of VPB [1] | Inhibition of tachycardia [1] | Number of VPB [1] | PR interval [1] | QRS interval [1] | QT interval [1] | anti-VPB activity at the end of the washout period [1, 3] | Plasma half-life [2] | hydrolysis half-life [2] | effects on the QT segment of the EKG recording (Class-III properties) ([1]; Figure 4) | effects on the PR segment of the EKG recording (Class-IV activity) ([1]; Figure 6)
1 | CC[C@H](C)OC(=O)Cc1oc2ccccc2c1C(=O)c1cc(I)c(OCCN(CC)CC)c(I)c1 [ATI-2042] | very good protection against this tachyarrhythmia | – | – | – | – | – | – | – | – | – | – | – | – | – | –
2 | CC[C@H](C)OC(=O)Cc1oc2ccccc2c1C(=O)c1cc(I)c(OCCN(CC)CC)c(I)c1 [R,S-2042] | the least potent and shortest acting | even less active than either the R- or the S-isomer | – | – | – | – | – | – | – | – | – | – | – | – | –
3 | CC[C@@H](C)OC(=O)Cc1oc2ccccc2c1C(=O)c1cc(I)c(OCCN(CC)CC)c(I)c1 [R-2042, (R)-sec-Butyl 2-[3-(3,5-diiodo-4-(2-diethylaminoethyloxy)benzoyl)]benzofurane-acetate] | – | – | ~100 min | lower | longer | longer | lower | shorter | no change | no change | completely inactive | 5.0 h | 5 h | – | –
4 | CC[C@H](C)OC(=O)Cc1oc2ccccc2c1C(=O)c1cc(I)c(OCCN(CC)CC)c(I)c1 [S-2042, (S)-sec-Butyl 2-[3-(3,5-diiodo-4-(2-diethylaminoethyloxy)benzoyl)]benzofurane-acetate] | more potent and longer acting then R-2042 | totally inhibited the formation of ventricular premature beats for the whole period of drug administration | – | lower | longer | longer | lower | longer | longer | longer | still retained part of its activity | 7.3 h | 7.3 h | the most potent and the longest acting | much more potent than R-2042 and the racemate R,S-2042
